From patent publication US7361659B2, “Pyrrazolo-pyrimidine derivatives” (Hoffmann-La Roche Inc., priority 2005, dated 2008)

Row | Compound | melting point [°C]
1 | Cc1nc(NC(=O)c2cnn3c(C(F)(F)F)cc(-c4ccc(C(F)(F)F)c(Cl)c4)nc23)sc1S(=O)(=O)NC(C)(C)CO [Example 30, 5-(3-Chloro-4-trifluoromethyl-phenyl)-7-trifluoromethyl-pyrazolo[1,5-a]pyrimidine-3-carboxylic acid [5-(2-hydroxy-1,1-dimethyl-ethylsulfamoyl)-4-methyl-thiazol-2-yl]-amide] | 274
2 | CCOc1cc(-c2cc(C(F)(F)F)n3ncc(C(=O)Nc4cc(S(N)(=O)=O)sc4Cl)c3n2)ccc1C(F)(F)F [Example 10, 5-(3-Ethoxy-4-trifluoromethyl-phenyl)-7-trifluoromethyl-pyrazolo[1,5-a]pyrimidine-3-carboxylic acid (2-chloro-5-sulfamoyl-thiophen-3-yl)-amide] | 281
3 | Cc1nc(NC(=O)c2cnn3c(C(F)(F)F)cc(-c4ccc(C(F)(F)F)cc4)nc23)sc1S(=O)(=O)NC(CO)CO [Example 64, 7-Trifluoromethyl-5-(4-trifluoromethyl-phenyl)-pyrazolo[1,5-a]pyrimidine-3-carboxylic acid [5-(2-hydroxy-1-hydroxymethyl-ethylsulfamoyl)-4-methyl-thiazol-2-yl]-amide] | 215
4 | Cc1cc(-c2cc(C(F)(F)F)n3ncc(C(=O)Nc4nc(C)c(S(N)(=O)=O)s4)c3n2)ccc1C(F)(F)F [Example 21, 5-(3-Methyl-4-trifluoromethyl-phenyl)-7-trifluoromethyl-pyrazolo[1,5-a]pyrimidine-3-carboxylic acid (4-methyl-5-sulfamoyl-thiazol-2-yl)-amide] | 309
5 | CN(CCO)S(=O)(=O)c1cc(NC(=O)c2cnn3c(C(F)F)cc(-c4ccc(C(F)(F)F)cc4)nc23)c(Cl)s1 [Example 72, 7-Difluoromethyl-5-(4-trifluoromethyl-phenyl)-pyrazolo[1,5-a]pyrimidine-3-carboxylic acid {2-chloro-5-[(2-hydroxy-ethyl)-methyl-sulfamoyl]-thiophen-3-yl}-amide] | 231
6 | NS(=O)(=O)c1cc(NC(=O)c2cnn3c(C(F)F)cc(-c4ccc(C(F)(F)F)cc4)nc23)c(Cl)s1 [Example 1, 7-Difluoromethyl-5-(4-trifluoromethyl-phenyl)-pyrazolo[1,5-a]pyrimidine-3-carboxylic-acid (2-chloro-5-sulfamoyl-thiophen-3-yl)-amide] | 298
7 | CCOc1cc(-c2cc(C(F)(F)F)n3ncc(C(=O)Nc4cc(S(=O)(=O)NCCO)sc4Cl)c3n2)ccc1C(F)(F)F [Example 56, 5-(3-Ethoxy-4-trifluoromethyl-phenyl)-7-trifluoromethyl-pyrazolo[1,5-a]pyrimidine-3-carboxylic acid [2-chloro-5-(2-hydroxy-ethylsulfamoyl)-thiophen-3-yl]-amide] | 250
8 | CC(CO)(CO)NS(=O)(=O)c1cc(NC(=O)c2cnn3c(C(F)F)cc(-c4ccc(C(F)(F)F)cc4)nc23)c(Cl)s1 [Example 37, 7-Difluoromethyl-5-(4-trifluoromethyl-phenyl)-pyrazolo[1,5-a]pyrimidine-3-carboxylic acid [2-chloro-5-(2-hydroxy-1-hydroxymethyl-1-methyl-ethylsulfamoyl)-thiophen-3-yl]-amide] | 237
9 | Cc1nc(NC(=O)c2cnn3c(C(F)(F)F)cc(-c4ccc(C(F)(F)F)cc4)nc23)sc1S(=O)(=O)NC(C)(CO)CO [Example 42, 7-Trifluoromethyl-5-(4-trifluoromethyl-phenyl)-pyrazolo[1,5-a]pyrimidine-3-carboxylic acid [5-(2-hydroxy-1-hydroxymethyl-1-methyl-ethylsulfamoyl)-4-methyl-thiazol-2-yl]-amide] | 250
10 | CC(C)(CO)NS(=O)(=O)c1cc(NC(=O)c2cnn3c(C(F)(F)F)cc(-c4ccc(C(F)(F)F)c(OCC(F)(F)F)c4)nc23)c(Cl)s1 [Example 17, 5-[3-(2,2,2-Trifluoro-ethoxy)-4-trifluoromethyl-phenyl]-7-trifluoromethyl-pyrazolo[1,5-a]pyrimidine-3-carboxylic acid [2-chloro-5-(2-hydroxy-1,1-dimethyl-ethylsulfamoyl)-thiophen-3-yl]-amide] | 264
11 | Cc1nc(NC(=O)c2cnn3c(C(F)F)cc(-c4ccc(C(F)(F)F)cc4)nc23)sc1S(=O)(=O)NCCO [Example 45, 7-Difluoromethyl-5-(4-trifluoromethyl-phenyl)-pyrazolo[1,5-a]pyrimidine-3-carboxylic acid [5-(2-hydroxy-ethylsulfamoyl)-4-methyl-thiazol-2-yl]-amide] | 134
12 | CN1CCN(S(=O)(=O)c2cc(NC(=O)c3cnn4c(C(F)(F)F)cc(-c5ccc(C(F)(F)F)cc5)nc34)c(Cl)s2)CC1 [Example 74, 7-Trifluoromethyl-5-(4-trifluoromethyl-phenyl)-pyrazolo[1,5-a]pyrimidine-3-carboxylic acid [2-chloro-5-(4-methyl-piperazine-1-sulfonyl)-thiophen-3-yl]-amide] | 301
13 | Cc1nc(NC(=O)c2cnn3c(C(F)(F)F)cc(-c4ccc(C(F)(F)F)cc4)nc23)sc1S(=O)(=O)N(C)CCO [Example 71, 7-Trifluoromethyl-5-(4-trifluoromethyl-phenyl)-pyrazolo[1,5-a]pyrimidine-3-carboxylic acid {5-[(2-hydroxy-ethyl)-methyl-sulfamoyl]-4-methyl-thiazol-2-yl}-amide] | 266
14 | Cc1nc(NC(=O)c2cnn3c(C(F)(F)F)cc(-c4ccc(Cl)cc4)nc23)sc1S(N)(=O)=O [Example 19, 5-(4-Chloro-phenyl)-7-trifluoromethyl-pyrazolo[1,5-a]pyrimidine-3-carboxylic acid (4-methyl-5-sulfamoyl-thiazol-2-yl)-amide] | 305
15 | Cc1nc(NC(=O)c2cnn3c(C(F)(F)F)cc(-c4ccc(C(F)(F)F)c(Cl)c4)nc23)sc1S(N)(=O)=O [Example 25, 5-(3-Chloro-4-trifluoromethyl-phenyl)-7-trifluoromethyl-pyrazolo[1,5-a]pyrimidine-3-carboxylic acid (4-methyl-5-sulfamoyl-thiazol-2-yl)-amide] | 299
16 | Cc1cc(-c2cc(C(F)F)n3ncc(C(=O)Nc4nc(C)c(S(=O)(=O)NC(C)(C)CO)s4)c3n2)ccc1C(F)(F)F [Example 39, 7-Difluoromethyl-5-(3-methyl-4-trifluoromethyl-phenyl)-pyrazolo[1,5-a]pyrimidine-3-carboxylic acid [5-(2-hydroxy-1,1-dimethyl-ethylsulfamoyl)-4-methyl-thiazol-2-yl]-amide] | 271
17 | Cc1nc(NC(=O)c2cnn3c(C(F)(F)F)cc(-c4ccc(C(F)(F)F)cc4)nc23)sc1S(=O)(=O)NC(C)(C)CO [Example 13, 7-Trifluoromethyl-5-(4-trifluoromethyl-phenyl)-pyrazolo[1,5-a]pyrimidine-3-carboxylic acid [5-(2-hydroxy-1,1-dimethyl-ethylsulfamoyl)-4-methyl-thiazol-2-yl]-amide] | 257
18 | NS(=O)(=O)c1cnc(NC(=O)c2cnn3c(C(F)(F)F)cc(-c4ccc(C(F)(F)F)cc4)nc23)s1 [Example 51, 7-Trifluoromethyl-5-(4-trifluoromethyl-phenyl)-pyrazolo[1,5-a]pyrimidine-3-carboxylic acid (5-sulfamoyl-thiazol-2-yl)-amide] | 309
